These results are taken from patent publication US20070128217A1 (priority 2003, published 2007).

Assay [1] relates to antibodies in sera from SARS patients (sera 1a, 1b, 2, 6, 37, 62, London, SARS-yellow, SARS-green). The class given is binding, human. The arrangement: Binding of serum 6 to linear peptides of protein X1 of SARS-CoV Urbani / Binding of serum 37 to linear peptides of protein X1 of SARS-CoV Urbani / Binding of serum 6 to looped/cyclic peptide (PEPSCAN-ELISA) / Binding of serum 37 to looped/cyclic peptide (PEPSCAN-ELISA) / Binding of serum 37 to looped/cyclic peptides of protein X1 of SARS-CoV Urbani / Binding of serum 6 to linear peptides of protein X2 / Binding of serum 37 to linear peptides of protein X2 / Binding of serum 37 to looped/cyclic peptides of protein X2 of SARS-CoV Urbani / Binding of serum 6 to linear peptides of protein M of SARS-CoV Urbani / Binding of serum 37 to linear peptides of protein M of SARS-CoV Urbani / Binding of serum 6 to looped/cyclic peptides of protein M of SARS-CoV Urbani / Binding of serum 37 to looped/cyclic peptides of protein M of SARS-CoV Urbani / Binding of serum 6 to linear peptides of protein X3 of SARS-CoV Urbani / Binding of serum 37 to linear peptides of protein X3 of SARS-CoV Urbani / Binding of serum 37 to looped/cyclic peptides of protein X3 of SARS-CoV Urbani / Binding of serum 6 to linear peptides of protein X4 of SARS-CoV Urbani / Binding of serum 37 to linear peptides of protein X4 of SARS-CoV Urbani / Binding of serum 37 to looped/cyclic peptides of protein X4 of SARS-CoV Urbani / Binding of serum 6 to linear peptides of protein X5 of SARS-CoV Urbani / Binding of serum 37 to linear peptides of protein X5 of SARS-CoV Urbani / Binding of serum 37 to looped/cyclic peptides of protein X5 of SARS-CoV Urbani / Binding of serum 6 to linear peptides of protein N of SARS-CoV Urbani / Binding of serum 37 to linear peptides of protein N of SARS-CoV Urbani / Binding of serum 6 to linear peptide (PEPSCAN-ELISA) / Binding of serum 1a to looped/cyclic peptides of protein N of SARS-CoV Urbani / Binding of serum 1b to looped/cyclic peptides of protein N of SARS-CoV Urbani / Binding of serum 2 to looped/cyclic peptides of protein N of SARS-CoV Urbani / Binding of serum 6 to looped/cyclic peptides of protein N of SARS-CoV Urbani / Binding of serum 37 to looped/cyclic peptides of protein N of SARS-CoV Urbani / Binding of serum 62 to looped/cyclic peptides of protein N of SARS-CoV Urbani / Binding of serum London to looped/cyclic peptides of protein N of SARS-CoV Urbani / Binding of serum SARS-green to looped/cyclic peptides of protein N of SARS-CoV Urbani: unit not given here.

For assay [2], the system named is control sera (pooled serum of ten healthy LUMC hospital workers; commercial negative donor pooled serum from the Dutch bloodbank). Format: binding, human. Set-up: Binding of Control serum LUMC to linear peptides / Binding of Control serum Blood-bank to linear peptides / Binding of Control serum LUMC to looped peptides / Binding of Control Serum Blood-Bank to Looped peptides / Binding of Control serum LUMC to linear peptides of the protein M of SARS-CoV Urbani / Binding of Control serum Blood-bank to linear peptides of the protein M of SARS-CoV Urbani / Binding of Control serum LUMC to looped peptides of the protein M of SARS-CoV Urbani / Binding of Control Serum Blood-Bank to Looped peptides of the protein M of SARS-CoV Urbani: unit not given here.

Assay [3] relates to rabbit serum obtained by immunizing a rabbit with the SARS-CoV strain Frankfurt 1. The class given is binding. Set-up: Binding of a rabbit serum to linear peptides / Binding of a rabbit serum to looped peptides / Rabbit serum linear peptides / Rabbit serum looped peptides / Binding of a rabbit serum to linear peptides of protein N of SARS-CoV Urbani (Rabbit serum linear peptides) / Binding of a rabbit serum to looped/cyclic peptides of protein N of SARS-CoV Urbani (Rabbit serum looped peptides): unit not given here.

On to VTEGDGISTPKLKED, for which, in assay [1], the “Binding of serum 1a to linear peptides of protein X1 of SARS-CoV Urbani” value amounted to 0.5, the “Binding of serum 1a to looped/cyclic peptides of protein X1 of SARS-CoV Urbani” value is 0.3, the “Binding of serum 1b to linear peptides of protein X1 of SARS-CoV Urbani” value amounted to 0.4 and the “Binding of serum 1b to looped/cyclic peptides of protein X1 of SARS-CoV Urbani” value came to 0.2. In assay [1], the “Binding of serum 2 to linear peptides of protein X1 of SARS-CoV Urbani” value came out at 0.3, the “Binding of serum 2 to looped/cyclic peptides of protein X1 of SARS-CoV Urbani” value is reported as 0.1, the “Binding of serum 6 to linear peptides of protein X1 of SARS-CoV Urbani” value is given as 0.3 and the “Binding of serum 6 to looped/cyclic peptides of protein X1 of SARS-CoV Urbani” value worked out at 0.1. Also, in assay [1], the “Binding of serum 37 to linear peptides of protein X1 of SARS-CoV Urbani” value was found to be 0.4, the “Binding of serum 37 to looped/cyclic peptides of protein X1 of SARS-CoV Urbani” value turned out to be 0.3, the “Binding of serum 62 to linear peptides of protein X1 of SARS-CoV Urbani” value is listed as 0.3 and the “Binding of serum 62 to looped/cyclic peptides of protein X1 of SARS-CoV Urbani” value came out at 0.3. Moreover, in assay [1], the “Binding of serum London to linear peptides of protein X1 of SARS-CoV Urbani” value is on record as 0.3, the “Binding of serum London to looped/cyclic peptides of protein X1 of SARS-CoV Urbani” value is 0.2, the “Binding of serum SARS-green to linear peptides of protein X1 of SARS-CoV Urbani” value is on record as 0.1 and the “Binding of serum SARS-green to looped/cyclic peptides of protein X1 of SARS-CoV Urbani” value is 0.1. For the same sequence, in assay [1], the “Binding of serum SARS-yellow to linear peptides of protein X1 of SARS-CoV Urbani” value came out at 0.2 and the “Binding of serum SARS-yellow to looped/cyclic peptides of protein X1 of SARS-CoV Urbani” value is recorded as 0.1. Further, in assay [2], the “Binding of Control Serum Blood-Bank to Looped peptides” value worked out at 0.3, the “Binding of Control serum Blood-bank to linear peptides” value was 0.2, the “Binding of Control serum LUMC to linear peptides” value amounted to 0.2 and the “Binding of Control serum LUMC to looped peptides” value came to 0.3. Also, in assay [3], the “Binding of a rabbit serum to linear peptides” value was determined as 0.0 and the “Binding of a rabbit serum to looped peptides” value is recorded as 0.4.
On to VTIAEILIIIMRTFR, for which, in assay [1], the “Binding of serum 1a to linear peptides of protein X3 of SARS-CoV Urbani” value is 0.7, the “Binding of serum 1a to looped/cyclic peptides of protein X3 of SARS-CoV Urbani” value turned out to be 0.7, the “Binding of serum 1b to linear peptides of protein X3 of SARS-CoV Urbani” value is given as 0.3 and the “Binding of serum 1b to looped/cyclic peptides of protein X3 of SARS-CoV Urbani” value turned out to be 0.4. Moreover, in assay [1], the “Binding of serum 2 to linear peptides of protein X3 of SARS-CoV Urbani” value stood at 0.7, the “Binding of serum 2 to looped/cyclic peptides of protein X3 of SARS-CoV Urbani” value is 0.7, the “Binding of serum 6 to linear peptides of protein X3 of SARS-CoV Urbani” value worked out at 0.7 and the “Binding of serum 6 to looped/cyclic peptides of protein X3 of SARS-CoV Urbani” value was determined as 0.7. Besides, in assay [1], the “Binding of serum 37 to linear peptides of protein X3 of SARS-CoV Urbani” value was 0.4, the “Binding of serum 37 to looped/cyclic peptides of protein X3 of SARS-CoV Urbani” value is given as 0.6, the “Binding of serum 62 to linear peptides of protein X3 of SARS-CoV Urbani” value is 0.6 and the “Binding of serum 62 to looped/cyclic peptides of protein X3 of SARS-CoV Urbani” value came to 0.5. For the same sequence, in assay [1], the “Binding of serum London to linear peptides of protein X3 of SARS-CoV Urbani” value worked out at 0.6, the “Binding of serum London to looped/cyclic peptides of protein X3 of SARS-CoV Urbani” value was 0.3, the “Binding of serum SARS-green to linear peptides of protein X3 of SARS-CoV Urbani” value amounted to 0.5 and the “Binding of serum SARS-green to looped/cyclic peptides of protein X3 of SARS-CoV Urbani” value was found to be 0.2. For the same sequence, in assay [1], the “Binding of serum SARS-yellow to linear peptides of protein X3 of SARS-CoV Urbani” value stood at 0.3 and the “Binding of serum SARS-yellow to looped/cyclic peptides of protein X3 of SARS-CoV Urbani” value came to 0.6. In assay [2], the “Binding of Control Serum Blood-Bank to Looped peptides of the protein X3 of SARS-CoV Urbani” value was 0.8, the “Binding of Control serum Blood-bank to linear peptides of the protein X3 of SARS-CoV Urbani” value amounted to 0.8, the “Binding of Control serum LUMC to linear peptides of the protein X3 of SARS-CoV Urbani” value was 0.6 and the “Binding of Control serum LUMC to looped peptides of the protein X3 of SARS-CoV Urbani” value is 0.8. Further, in assay [3], the “Rabbit serum linear peptides” value is recorded as 0.2 and the “Rabbit serum looped peptides” value is listed as 0.4.
With VTIYSHLLLVAAGME, in assay [1], the “Binding of serum 1a to linear peptides of protein X1 of SARS-CoV Urbani” value was determined as 0.8, the “Binding of serum 1a to looped/cyclic peptide (PEPSCAN-ELISA)” value turned out to be 0.5, the “Binding of serum 1b to linear peptides of protein X1 of SARS-CoV Urbani” value is reported as 0.7 and the “Binding of serum 1b to looped/cyclic peptide (PEPSCAN-ELISA)” value came out at 0.4. In assay [1], the “Binding of serum 2 to linear peptides of protein X1 of SARS-CoV Urbani” value turned out to be 0.5, the “Binding of serum 2 to looped/cyclic peptide (PEPSCAN-ELISA)” value is reported as 0.5, the “Binding of serum 6 to linear peptides of protein X1 of SARS-CoV Urbani” value is given as 0.4 and the “Binding of serum 6 to looped/cyclic peptide (PEPSCAN-ELISA)” value was 0.3. Moreover, in assay [1], the “Binding of serum 37 to linear peptides of protein X1 of SARS-CoV Urbani” value worked out at 0.6, the “Binding of serum 37 to looped/cyclic peptide (PEPSCAN-ELISA)” value was determined as 0.5, the “Binding of serum 62 to linear peptides of protein X1 of SARS-CoV Urbani” value was 0.6 and the “Binding of serum 62 to looped/cyclic peptide (PEPSCAN-ELISA)” value was determined as 0.4. Further, in assay [1], the “Binding of serum London to linear peptides of protein X1 of SARS-CoV Urbani” value was found to be 0.3, the “Binding of serum London to looped/cyclic peptide (PEPSCAN-ELISA)” value is 0.2, the “Binding of serum SARS-green to linear peptides of protein X1 of SARS-CoV Urbani” value is given as 0.3 and the “Binding of serum SARS-green to looped/cyclic peptide (PEPSCAN-ELISA)” value is given as 0.3. In addition, in assay [1], the “Binding of serum SARS-yellow to linear peptides of protein X1 of SARS-CoV Urbani” value was 0.6 and the “Binding of serum SARS-yellow to looped/cyclic peptide (PEPSCAN-ELISA)” value is recorded as 0.3. Moreover, in assay [2], the “Binding of Control Serum Blood-Bank to Looped peptides” value is 0.4, the “Binding of Control serum Blood-bank to linear peptides” value stood at 0.5, the “Binding of Control serum LUMC to linear peptides” value is given as 0.5 and the “Binding of Control serum LUMC to looped peptides” value was 0.6. Further, in assay [3], the “Binding of a rabbit serum to linear peptides” value turned out to be 0.1 and the “Binding of a rabbit serum to looped peptides” value is reported as 0.5.
For VTRPLMESELVIGAV, in assay [1], the “Binding of serum 1a to linear peptides of protein M of SARS-CoV Urbani” value was found to be 0.8, the “Binding of serum 1b to linear peptides of protein M of SARS-CoV Urbani” value was found to be 0.6, the “Binding of serum 2 to linear peptides of protein M of SARS-CoV Urbani” value worked out at 0.9 and the “Binding of serum 6 to linear peptides of protein M of SARS-CoV Urbani” value is reported as 0.2. Moreover, in assay [1], the “Binding of serum 37 to linear peptides of protein M of SARS-CoV Urbani” value amounted to 1.0, the “Binding of serum 62 to linear peptides of protein M of SARS-CoV Urbani” value is given as 0.9, the “Binding of serum London to linear peptides of protein M of SARS-CoV Urbani” value was 0.3 and the “Binding of serum SARS-green to linear peptides of protein M of SARS-CoV Urbani” value was found to be 0.3. Moreover, in assay [1], the “Binding of serum SARS-yellow to linear peptides of protein M of SARS-CoV Urbani” value was 0.1; the “Recognition of the peptide by sera of SARS-CoV infected individuals, and form (linear, looped/cyclic) in which it is recognized” value is recorded as “recognized in looped/cyclic form”. In assay [2], the “Binding of Control Serum Blood-Bank to Looped peptides of the protein M of SARS-CoV Urbani” value was determined as 0.9, the “Binding of Control serum Blood-bank to linear peptides of the protein M of SARS-CoV Urbani” value is listed as 0.6, the “Binding of Control serum LUMC to linear peptides of the protein M of SARS-CoV Urbani” value was 0.4 and the “Binding of Control serum LUMC to looped peptides of the protein M of SARS-CoV Urbani” value is recorded as 1.0. Further, in assay [3], the “Rabbit serum linear peptides” value was found to be 0.4 and the “Rabbit serum looped peptides” value amounted to 0.2.
